{
  "source": "ChEMBL document CHEMBL5543113",
  "about": "“Amphiphilic α-Peptoid-deoxynojirimycin Conjugate-based Multivalent Glycosidase Inhibitor for Hypoglycemic Effect and Fluorescence Imaging” (J Med Chem, 2024)",
  "key": {"[1]": {"system": "Mus musculus", "experiment": "Binding affinity to mouse alpha-glucosidase assessed as DNJ fluorescence intensity at 2 x 10^-4 M administered as Nile red complex in presence of DNJ by fluorescence spectra analysis (reference value: 1627)", "conditions": "dose 2.0 10^-4M"}, "[2]": {"experiment": "Cytotoxicity against human GES1 cells assessed as viable cells at 125 uM incubated for 44 hrs by MTT assay relative to control", "format": "toxicity, cell-based", "conditions": "read-out: Activity"}, "[3]": {"system": "Mus musculus", "experiment": "Hypoglycemic activity in C57BL/6J mouse assessed as reduction in PBG level measured per DNJ unit at 0.4 mg/kg, po co-administered with maltose and measured at 15 to 30 mins by glucometer relative to control", "format": "functional", "parameters": "scale not given: the % may be the effect or the level left", "conditions": "time 15-30 min"}, "[4]": {"system": "Mus musculus", "experiment": "Hypoglycemic activity in KKAy diabetic mouse model assessed as blood glucose level at 1.6 mg/kg, po co-administered with maltose and measured after 120 mins by glucometer (reference value: 582.6 +/- 22.9 mg/dl)", "format": "functional", "conditions": "2 h"}, "[5]": {"system": "Mus musculus", "experiment": "Hypoglycemic activity in KKAy diabetic mouse model assessed as decrease in PBG level at 1.6 mg/kg, po co-administered with maltose and measured after 120 mins by glucometer relative to control", "format": "functional", "parameters": "scale not given: the % may be the effect or the level left", "conditions": "2 h"}, "[6]": {"experiment": "Drug uptake in C57/6J mouse kidney assessed as increase in fluorescence at 5 x 10^-5M, po administered as Nile red complex and measured after 4 hrs by fluorescence imaging analysis", "format": "ADME, organism-based", "conditions": "in vivo, dose 5 10^-5M"}, "[7]": {"system": "Mus musculus", "experiment": "Hypoglycemic activity in C57BL/6J mouse assessed as blood glucose level at 0.4 mg/kg, po co-administered with maltose and measured after 30 mins by glucometer (380.8 +/- 20.6 mg/dL)", "format": "functional", "conditions": "0.5 h"}, "[8]": {"system": "Mus musculus", "experiment": "Hypoglycemic activity in C57BL/6J mouse assessed as decrease in PBG level at 0.8 mg/kg, po co-administered with maltose and measured after 30 mins by glucometer relative to control", "format": "functional", "parameters": "scale not given: the % may be the effect or the level left", "conditions": "0.5 h"}, "[9]": {"experiment": "Drug uptake in C57/6J mouse lung assessed as increase in fluorescence at 5 x 10^-5M, po administered as Nile red complex and measured after 4 hrs by fluorescence imaging analysis", "format": "ADME, organism-based", "conditions": "in vivo, dose 5 10^-5M"}, "[10]": {"experiment": "Stability of compound in simulated gastric fluid assessed as fluorescence intensity at 2 x 10^-4 M administered as Nile red complex by fluorescence spectra analysis (reference value: 3548)", "format": "ADME", "conditions": "simulated gi fluid, 200 µM; dose 2 10^-4M"}, "[11]": {"system": "Mus musculus", "experiment": "Hypoglycemic activity in C57BL/6J mouse assessed as reduction in PBG level measured per DNJ unit at 0.8 mg/kg, po co-administered with maltose and measured at 15 to 30 mins by glucometer relative to control", "format": "functional", "parameters": "scale not given: the % may be the effect or the level left", "conditions": "time 15-30 min"}, "[12]": {"experiment": "Binding affinity to mouse alpha-glucosidase assessed as DNJ binding constant at 2 x 10^-4 M administered as Nile red complex in presence of DNJ by fluorescence spectra analysis"}, "[13]": {"experiment": "Self assembly property of the compound assessed as diameter at 7.5 x 10^-5 mol/L by dynamic light scattering spectrometric analysis", "format": "physicochemical", "conditions": "75 µM; dose 7.5 10^-5mol/L"}, "[14]": {"experiment": "Toxicity in C57BL/6J mouse assessed as effect on lung morphology at 1.6 mg/kg, po co-administered with maltose for 7 days by Hematoxylin and eosin staining based analysis", "format": "organism-based", "conditions": "in vivo, 168 h, time 7 day"}, "[15]": {"experiment": "Drug uptake in C57/6J mouse spleen assessed as increase in fluorescence at 5 x 10^-5M, po administered as Nile red complex and measured after 4 hrs by fluorescence imaging analysis", "format": "ADME, organism-based", "conditions": "in vivo, dose 5 10^-5M"}, "[16]": {"experiment": "Toxicity in C57BL/6J mouse assessed as effect on liver morphology at 1.6 mg/kg, po co-administered with maltose for 7 days by Hematoxylin and eosin staining based analysis", "format": "organism-based", "conditions": "in vivo, 168 h, time 7 day"}, "[17]": {"experiment": "Toxicity in C57BL/6J mouse assessed as effect on heart morphology at 1.6 mg/kg, po co-administered with maltose for 7 days by Hematoxylin and eosin staining based analysis", "format": "organism-based", "conditions": "in vivo, 168 h, time 7 day"}, "[18]": {"system": "Mus musculus", "experiment": "Hypoglycemic activity in KKAy diabetic mouse model assessed as molar decrease in PBG level at 1.6 mg/kg, po co-administered with maltose and measured after 30 mins by glucometer relative to control", "format": "functional", "parameters": "scale not given: the % may be the effect or the level left", "conditions": "0.5 h"}, "[19]": {"experiment": "Self assembly property of compound assessed as Nilered-compound complex formation by measuring critical micellar concentration at 638 nm by Nile red dye based fluorescence analysis", "format": "physicochemical"}, "[20]": {"system": "Mus musculus", "experiment": "Hypoglycemic activity in KKAy diabetic mouse model assessed as decrease in PBG level at 1.6 mg/kg, po co-administered with maltose and measured after 60 mins by glucometer relative to control", "format": "functional", "parameters": "scale not given: the % may be the effect or the level left", "conditions": "1 h"}, "[21]": {"system": "Mus musculus", "experiment": "Relative hypoglycemic rate in KKAy diabetic mouse model assessed as reduction in PBG level by measuring fold change at 1.6 mg/kg, po co-administered with maltose and measured after 30 mins by glucometer relative to miglitol", "format": "functional", "conditions": "0.5 h"}, "[22]": {"experiment": "Inhibition of C57BL/6J mouse Alpha-glucosidase incubated for 10 mins by Lineweaver-Burk plot analysis"}, "[23]": {"system": "Mus musculus", "experiment": "Hypoglycemic activity in C57BL/6J mouse assessed as blood glucose level at 0.8 mg/kg, po co-administered with maltose and measured after 15 mins by glucometer (380.8 +/- 20.6 mg/dl)", "format": "functional", "conditions": "0.25 h"}, "[24]": {"system": "Mus musculus", "experiment": "Hypoglycemic activity in C57BL/6J mouse assessed as decrease in PBG level at 1.6 mg/kg, po co-administered with maltose and measured after 15 mins by glucometer relative to control", "format": "functional", "parameters": "scale not given: the % may be the effect or the level left", "conditions": "0.25 h"}, "[25]": {"experiment": "Stability of compound in simulated intestinal fluid at 2 x 10^-4 M administered as Nile red complex by fluorescence spectra analysis", "format": "ADME", "conditions": "simulated gi fluid, 200 µM; dose 2 10^-4M"}, "[26]": {"experiment": "Self assembly property of the compound assessed as diameter at 2.5 x 10^-5 mol/L by dynamic light scattering spectrometric analysis", "format": "physicochemical", "conditions": "25 µM; dose 2.5 10^-5mol/L"}, "[27]": {"target": "Alpha-glucosidase (Saccharomyces cerevisiae S288c) (UniProt P53341+P38158+P07265)", "experiment": "Inhibition of Saccharomyces cerevisiae Alpha-glucosidase at 1 mM incubated for 10 mins by absorbance based microplate spectrophotometric analysis", "format": "protein assay"}, "[28]": {"system": "Aspergillus niger", "experiment": "Potency index, ratio of 1-deoxynojirimycin Ki to test compound Ki for inhibition of Aspergillus niger Alpha-glucosidase incubated for 10 mins by Lineweaver-Burk plot analysis"}, "[29]": {"system": "Mus musculus", "experiment": "Hypoglycemic activity in KKAy diabetic mouse model assessed as blood glucose level at 1.6 mg/kg, po co-administered with maltose and measured after 15 mins by glucometer (reference value: 582.6 +/- 22.9 mg/dl)", "format": "functional", "conditions": "0.25 h"}, "[30]": {"system": "Oryza sativa", "experiment": "Potency index, ratio of miglitol Ki to test compound Ki for inhibition of rice Alpha-glucosidase incubated for 10 mins by Lineweaver-Burk plot analysis"}, "[31]": {"experiment": "Self assembly property of the compound assessed as diameter at 2 x 10^-4 mol/L by dynamic light scattering spectrometric analysis", "format": "physicochemical", "conditions": "200 µM; dose 2 10^-4mol/L"}, "[32]": {"experiment": "Self assembly property of the compound assessed as diameter at 1 x 10^-5 mol/L by dynamic light scattering spectrometric analysis", "format": "physicochemical", "conditions": "10 µM; dose 1 10^-5mol/L"}, "[33]": {"system": "Mus musculus", "experiment": "Hypoglycemic activity in C57BL/6J mouse assessed as reduction in PBG level measured per DNJ unit at 1.6 mg/kg, po co-administered with maltose and measured at 15 to 30 mins by glucometer relative to control", "format": "functional", "parameters": "scale not given: the % may be the effect or the level left", "conditions": "time 15-30 min"}, "[34]": {"experiment": "Toxicity in C57BL/6J mouse assessed as effect on spleen morphology at 1.6 mg/kg, po co-administered with maltose for 7 days by Hematoxylin and eosin staining based analysis", "format": "organism-based", "conditions": "in vivo, 168 h, time 7 day"}},
  "note": "Active and inactive are the calls of the source. The rule behind the calls is not given here.",
  "data": [
    {"smiles": "CCCCCCCCCCCCCCCCCCNC(=O)CN(Cc1cn(CCCCCCN2C[C@H](O)[C@@H](O)[C@H](O)[C@H]2CO)nn1)C(=O)CN(Cc1cn(CCCCCCN2C[C@H](O)[C@@H](O)[C@H](O)[C@H]2CO)nn1)C(=O)CN(Cc1cn(CCCCCCN2C[C@H](O)[C@@H](O)[C@H](O)[C@H]2CO)nn1)C(=O)CN(Cc1cn(CCCCCCN2C[C@H](O)[C@@H](O)[C@H](O)[C@H]2CO)nn1)C(C)=O", "values": [
      {"measurement": "Flu intensity", "setting": "[1]", "result": 2300},
      {"measurement": "viability at 44 h, 125 µM", "setting": "[2]", "result": "> 80", "unit": "%"},
      {"measurement": "Activity", "setting": "[3]", "result": 22.2, "unit": "%"},
      {"measurement": "Activity", "setting": "[4]", "result": 351, "unit": "mg/dL"},
      {"measurement": "Activity", "setting": "[5]", "result": 19.9, "unit": "%"},
      {"measurement": "Drug uptake", "setting": "[6]", "result": "Not Active"},
      {"measurement": "Activity", "setting": "[7]", "result": 309.9, "unit": "mg/dL"},
      {"measurement": "Activity", "setting": "[8]", "result": 24.5, "unit": "%"},
      {"measurement": "Drug uptake", "setting": "[9]", "result": "Not Active"},
      {"measurement": "Flu intensity", "setting": "[10]", "result": 862},
      {"measurement": "Activity", "setting": "[11]", "result": 14.2, "unit": "%"},
      {"measurement": "Ka", "setting": "[12]", "result": 308, "unit": "M⁻¹"},
      {"measurement": "Activity", "setting": "[13]", "result": 243, "unit": "nm"},
      {"measurement": "Activity", "setting": "[14]", "result": "Non-Toxic"},
      {"measurement": "Drug uptake", "setting": "[15]", "result": "Not Active"},
      {"measurement": "Activity", "setting": "[16]", "result": "Non-Toxic"},
      {"measurement": "Activity", "setting": "[17]", "result": "Non-Toxic"},
      {"measurement": "Activity", "setting": "[18]", "result": 7.6, "unit": "%"},
      {"measurement": "CAC", "setting": "[19]", "result": "8.31 10^-5M"},
      {"measurement": "Activity", "setting": "[20]", "result": 22.1, "unit": "%"},
      {"measurement": "fold change (FC)", "setting": "[21]", "result": 3},
      {"measurement": "Ki", "setting": "[22]", "result": 2700, "unit": "nM"},
      {"measurement": "Activity", "setting": "[23]", "result": 326.5, "unit": "mg/dL"},
      {"measurement": "Activity", "setting": "[24]", "result": 18.8, "unit": "%"},
      {"measurement": "Stability", "setting": "[25]", "result": "Stable"},
      {"measurement": "Activity", "setting": "[26]", "result": 195, "unit": "nm"},
      {"measurement": "inhibition", "setting": "[27]", "result": "inactive"},
      {"measurement": "Ratio Ki", "setting": "[28]", "result": 21.2},
      {"measurement": "Activity", "setting": "[29]", "result": 327.6, "unit": "mg/dL"},
      {"measurement": "Ratio Ki", "setting": "[30]", "result": 6.7},
      {"measurement": "Activity", "setting": "[31]", "result": 285, "unit": "nm"},
      {"measurement": "Activity", "setting": "[32]", "result": 179, "unit": "nm"},
      {"measurement": "Activity", "setting": "[33]", "result": 11.5, "unit": "%"},
      {"measurement": "Activity", "setting": "[34]", "result": "Non-Toxic"}
    ]}
  ]
}
